In patent US6593480B2 (Abbott Laboratories, priority 1999, dated 2003):

Legend:
[1] = biological target: T1, Human glucocorticoid receptors (Homo sapiens, UniProt P04150); experiment: Radioligand filter binding assay, displacement of 3(H)-dexamethasone from human glucocorticoid receptor cytosol; details: 1.7 μM test compound, inhibition of 3(H)-dex binding to hGR; for inhibition at 1.7 µM: read-out: GR BINDING (% Inhibition @ 1.7 μM)
T1 construct: made in house; host or cells: Sf9 insect cells, recombinant baculovirus (BAC-TO-BAC)
T1 sequence (P04150 1-777): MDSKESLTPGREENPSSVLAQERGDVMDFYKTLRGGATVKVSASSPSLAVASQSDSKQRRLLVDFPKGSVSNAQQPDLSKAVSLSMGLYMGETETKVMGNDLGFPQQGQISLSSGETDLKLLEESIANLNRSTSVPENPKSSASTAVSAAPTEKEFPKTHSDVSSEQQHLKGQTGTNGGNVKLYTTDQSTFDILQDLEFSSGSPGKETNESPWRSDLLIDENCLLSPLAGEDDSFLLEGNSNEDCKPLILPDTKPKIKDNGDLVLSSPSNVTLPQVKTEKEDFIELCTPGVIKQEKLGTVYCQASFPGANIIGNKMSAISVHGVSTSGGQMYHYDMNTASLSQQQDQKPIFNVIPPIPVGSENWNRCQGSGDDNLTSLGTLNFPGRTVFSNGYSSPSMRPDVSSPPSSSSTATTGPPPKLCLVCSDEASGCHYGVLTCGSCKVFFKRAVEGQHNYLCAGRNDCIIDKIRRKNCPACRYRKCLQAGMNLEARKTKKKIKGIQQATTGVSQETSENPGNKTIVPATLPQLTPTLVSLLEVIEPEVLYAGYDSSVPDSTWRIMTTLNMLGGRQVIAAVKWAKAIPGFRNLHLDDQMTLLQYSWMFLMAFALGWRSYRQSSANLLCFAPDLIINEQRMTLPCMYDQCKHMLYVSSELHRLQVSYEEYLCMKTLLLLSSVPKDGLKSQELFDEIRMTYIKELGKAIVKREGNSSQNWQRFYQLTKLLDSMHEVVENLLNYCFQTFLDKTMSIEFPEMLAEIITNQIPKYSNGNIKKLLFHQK

[2] = biological target: T2, progesterone receptor (PR) (Homo sapiens, UniProt P06401); experiment: Radioligand binding assay with progesterone receptor cytosol (similar protocol)
T2 sequence (P06401 1-933): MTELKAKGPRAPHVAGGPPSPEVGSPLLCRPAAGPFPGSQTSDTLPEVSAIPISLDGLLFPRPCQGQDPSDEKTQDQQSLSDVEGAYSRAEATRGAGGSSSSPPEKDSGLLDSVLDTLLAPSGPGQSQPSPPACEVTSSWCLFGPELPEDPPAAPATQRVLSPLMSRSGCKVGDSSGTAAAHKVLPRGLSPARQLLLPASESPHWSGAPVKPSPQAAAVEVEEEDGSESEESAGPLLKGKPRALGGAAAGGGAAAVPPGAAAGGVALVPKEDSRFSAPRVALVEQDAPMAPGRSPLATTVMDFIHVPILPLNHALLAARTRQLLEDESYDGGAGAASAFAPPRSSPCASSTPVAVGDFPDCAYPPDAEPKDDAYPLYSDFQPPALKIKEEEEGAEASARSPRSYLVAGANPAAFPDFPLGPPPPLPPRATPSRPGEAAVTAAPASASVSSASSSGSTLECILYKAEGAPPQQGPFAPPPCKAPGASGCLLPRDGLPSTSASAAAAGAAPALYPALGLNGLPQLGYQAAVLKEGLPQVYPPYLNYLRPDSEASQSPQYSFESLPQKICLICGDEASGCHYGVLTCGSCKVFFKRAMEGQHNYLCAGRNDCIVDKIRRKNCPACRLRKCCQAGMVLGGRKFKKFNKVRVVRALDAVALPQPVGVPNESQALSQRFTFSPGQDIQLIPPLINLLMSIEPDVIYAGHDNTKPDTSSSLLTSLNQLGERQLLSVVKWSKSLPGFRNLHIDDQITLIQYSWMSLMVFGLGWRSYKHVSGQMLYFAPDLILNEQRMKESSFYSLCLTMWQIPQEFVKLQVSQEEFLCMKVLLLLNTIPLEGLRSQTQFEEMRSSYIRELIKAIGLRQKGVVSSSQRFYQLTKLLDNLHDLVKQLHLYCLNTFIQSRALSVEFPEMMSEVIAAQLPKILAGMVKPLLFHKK
Description: Methods for Radioligand Binding Studies with Human Glucocorticoid and Progesterone Receptor Cytosol
A similar protocol was employed to measure affinity of the compounds of the present invention for progesterone receptor (PR).

Row | Compound | GR BINDING (% Inhibition @ 1.7 μM) [1] [%] | IC50 [2] [µM] | inhibition at 1.7 µM [1] [%]
1 | (1-methoxy-6-(4-chlorophenyl)-6H-dibenzo(b,d)pyran-8-yl)methanesulfonamide [Example 61] | 91.3 | 3.99 | –
2 | COc1cccc2c1-c1ccc(NS(C)(=O)=O)cc1C(CCCCCCC#N)O2 (stereo not shown) [Example 48] | – | > 10 | 90.8
3 | (1-methoxy-6-(4-chlorobutyl)-6H-dibenzo(b,d)pyran-8-yl)methanesulfonamide [Example 57] | 94.9 | 1.09 | –
4 | COc1cccc2c1-c1ccc(NS(C)(=O)=O)cc1C(c1ccc(C#N)cc1)O2 (stereo not shown) [Example 47] | – | 3.48 | 94.5
5 | (1-(2-propynyl)oxy-6-phenyl-6H-dibenzo(b,d)pyran-8-yl)methanesulfonamide [Example 45] | 91.2 | 2.16 | –
6 | (1-methoxy-6-(3-carboethoxyphenyl)-6H-dibenzo(b,d)pyran-8-yl)methanesulfonamide [Example 51] | 94.0 | > 10 | –
7 | (1-methoxy-6-(4-carboethoxyphenyl)-6H-dibenzo(b,d)pyran-8-yl)methanesulfonamide [Example 52] | 92.2 | > 10 | –
8 | (1-methoxy-6-(5-chlorothien-2-yl)-6H-dibenzo(b,d)pyran-8-yl)methanesulfonamide [Example 58] | 94.6 | 0.524 | –
9 | (1-difluoromethoxy-6-allyl-6H-dibenzo(b,d)pyran-8-yl)-methanesulfonamide [Example 31] | 90.0 | 0.079 | –
10 | C=CCOc1cccc(C2Oc3cccc(OC)c3-c3ccc(NS(C)(=O)=O)cc32)c1 (stereo not shown) [Example 33, (1-methoxy-6-(3-allyloxy)phenyl-6H-dibenzo(b,d)pyran-8-yl)-methanesulfonamide] | – | 5.49 | 87.5
11 | (1-methoxy-6-allyl-6H-dibenzo(b,d)pyran-8-yl)methanesulfonamide [Example 53] | 92.9 | 1.42 | –
12 | (1-cyano-6-phenyl-6H-dibenzo(b,d)pyran-8-yl)methanesulfonamide [Example 43] | 90.6 | 0.73 | –
13 | COCCCCOc1cccc(C2Oc3cccc(OC)c3-c3ccc(NS(C)(=O)=O)cc32)c1 (stereo not shown) [Example 95, N-{1-methoxy-6-[3-(4-methoxybutoxy)phenyl]-6H-benzo[c]chromen-8-yl}methanesulfonamide] | – | > 1 | 90
14 | (1-methoxy-6-(3-methoxyphenyl)-6H-dibenzo(b,d)pyran-8-yl)methanesulfonamide [Example 59] | 94.7 | 2.11 | –
15 | (1-ethynyl-6-phenyl-6H-dibenzo(b,d)pyran-8-yl)methanesulfonamide [Example 36] | 95.0 | 2.24 | –
16 | (1-difluoromethoxy-6-(4-(N-allyl-N-methylamino)phenyl)-6H-dibenzo(b,d)pyran-8-yl)-methanesulfonamide [Example 30] | 85.6 | 1.28 | –
17 | (1-methoxy-6-(5-bromothien-2-yl)-6H-dibenzo(b,d)pyran-8-yl)methanesulfonamide [Example 62] | 94.5 | 0.172 | –
18 | COc1cccc2c1-c1ccc(NS(C)(=O)=O)c(Br)c1C(c1ccccc1)O2 (stereo not shown) [Example 2] | – | > 10 | 67.2
19 | (1-methoxy-6-(2-thienyl)-6H-dibenzo(b,d)pyran-8-yl)methanesulfonamide [Example 54] | 94.1 | 0.45 | –
20 | (1-methoxy-6-(3-cyanophenyl)-6H-dibenzo(b,d)pyran-8-yl)methanesulfonamide [Example 50] | 93.7 | 1.05 | –
21 | C[Si](C)(C)CCCc1cccc(C2Oc3cccc(OC(F)F)c3-c3ccc(NS(C)(=O)=O)cc32)c1 (stereo not shown) [Example 134, N-(1-(difluoromethoxy)-6-{3-[3-(trimethylsilyl)propyl]phenyl}-6H-benzo[c]chromen-8-yl)methanesulfonamide] | – | – | 88.8
22 | COc1cccc2c1-c1ccc(NC(=O)C3CC3)cc1C(c1ccccc1)O2 (stereo not shown) [Example 16, (1-methoxy-6-phenyl-6H-dibenzo(b,d)pyran-8-yl)cyclopropanecarboxamide] | 74.3 | – | –

Now from value to compound:

Row | GR BINDING (% Inhibition @ 1.7 μM) [1] [%] | IC50 [2] [µM] | inhibition at 1.7 µM [1] [%] | Compound
23 | 91.6 | 0.222 | – | (1,2-methylenedioxy-6-phenyl-6H-dibenzo(b,d)pyran-8-yl)methanesulfonamide [Example 66]
24 | – | 0.077 | 90.4 | COc1cccc2c1-c1ccc(NS(C)(=O)=O)cc1C(c1cccc(C)c1)O2 (stereo not shown) [Example 86, N-[1-methoxy-6-(3-methylphenyl)-6H-benzo[c]chromen-8-yl]methanesulfonamide]
25 | 98.5 | 1.2 | – | (1-methoxy-6-(3,4-dichlorophenyl)-6H-dibenzo(b,d)pyran-8-yl)methanesulfonamide [Example 63]
26 | – | 0.28 | 92.5 | COCCCc1ccc(C2Oc3cccc(OC)c3-c3ccc(NS(C)(=O)=O)cc32)s1 (stereo not shown) [Example 138, N-{1-methoxy-6-[5-(3-methoxypropyl)-2-thienyl]-6H-benzo[c]chromen-8-yl}methanesulfonamide]
27 | 92.8 | > 10 | – | COc1cccc2c1-c1ccc(NS(C)(=O)=O)cc1C(c1ccc(Oc3ccc(Br)cc3)cc1)O2 (stereo not shown) [Example 153]
28 | 86.7 | 0.97 | – | (1-methoxy-6-(inden-3-yl)-6H-dibenzo(b,d)pyran-8-yl)methanesulfonamide [Example 74]
29 | 89.7 | 0.67 | – | (1-methoxy-6-(4-methylphenyl)-6H-dibenzo(b,d)pyran-8-yl)methanesulfonamide [Example 76]
30 | 88.1 | > 10 | – | (1-methoxy-4-methyl-6-phenyl-6H-dibenzo(b,d)pyran-8-yl)methanesulfonamide [Example 68]
31 | 88.3 | > 1 | – | (1-methoxy-6-(3-chloroprop-2-en-1-yl)-6H-dibenzo(b,d)pyran-8-yl)methanesulfonamide [Example 73]
32 | 90.1 | 1.85 | – | (1-methoxy-6-(5-chloropent-1-yl)-6H-dibenzo(b,d)pyran-8-yl)methanesulfonamide [Example 75]
33 | 89.5 | 0.34 | – | (1-methoxy-6-(2-bromoprop-2-en-1-yl)-6H-dibenzo(b,d)pyran-8-yl)methanesulfonamide [Example 71]
34 | 94.9 | 2.84 | – | (1-methoxy-2-hydroxy-6-phenyl-6H-dibenzo(b,d)pyran-8-yl)methanesulfonamide [Example 65]
35 | – | – | 66.1 | CCOC(=O)CCCCCC1Oc2cccc(OC)c2-c2ccc(NS(C)(=O)=O)cc21 (stereo not shown) [Example 79, ethyl 6-{1-methoxy-8-[(methylsulfonyl)amino]-6H-benzo[c]chromen-6-yl}hexanoate]
